Experimental data from US20170232083A1, “METHODS OF DIAGNOSIS AND TREATMENT OF CELIAC DISEASE IN CHILDREN” (priority 2014, published 2017).

System: PBMC (polyclonal gluten-specific T cells) of paediatric and adult CD patients
Test: IFN-γ ELISpot of PBMC after 3 day oral wheat challenge (SFU, % of maximal peptide response, dominance scores, EC50; Examples 5-6)
Type: cell-based, human
Settings: for IFN-γ ELISpot response: after oral wheat challenge
[1] = patient A, 11-17 yrs, cut-off 10 SFU
[2] = patient E, H, 11-17 yrs, cut-off 10 SFU
[3] = patient F, 11-17 yrs, cut-off 10 SFU
[4] = patient G, 11-17 yrs, cut-off 10 SFU
[5] = patient H (HLA-DQ2.5 homozygote), 3-5yrs, cut-off 10 SFU
[6] = patient H, 11-17 yrs, cut-off 10 SFU
[7] = patient ID not given, 11-17 yrs, cut-off 10 SFU
[8] = patient ID not given, max peptide 95 SFU
[9] = patient N, 3-5yrs, cut-off 10 SFU
[10] = patient P, 11-17 yrs, cut-off 21.6 SFU
[11] = patient Q, 11-17 yrs, cut-off 10 SFU
[12] = patient U, H, 11-17 yrs, cut-off 10 SFU
[13] = patient V, 6-10 yrs, cut-off 10 SFU
[14] = patient Y, 6-10 yrs, cut-off 10 SFU
[15] = patient eleven, 6-10 yrs, cut-off 10 SFU
[16] = patient eleven, max peptide 57 SFU
[17] = patient five, max peptide 48 SFU
[18] = patient four, 3-5yrs, cut-off 10 SFU
[19] = patient four, max peptide 44 SFU
[20] = patient seven, 6-10 yrs, cut-off 10.5 SFU
[21] = patient ten, 3-5yrs, cut-off 10 SFU
[22] = patient three, 6-10 yrs, cut-off 10.5 SFU
[23] = patient twelve, 11-17 yrs, cut-off 10 SFU
[24] = patient two, 3-5yrs, cut-off 10 SFU
[25] = patient two, max peptide 60 SFU
[26] = patient D, max peptide 30.5 SFU

| Sequence | IFN-γ ELISpot response [1] [SFU] | IFN-γ ELISpot response [2] [SFU] | Significant response as percentage of maximal peptide SFU (patient E, max peptide 224 SFU) | IFN-γ ELISpot response [3] [SFU] | Significant response as percentage of maximal peptide SFU (patient F, max peptide 178 SFU) | IFN-γ ELISpot response [4] [SFU] | IFN-γ ELISpot response [5] [SFU] | IFN-γ ELISpot response [6] [SFU] | Significant response as percentage of maximal peptide SFU (patient H, max peptide 17 SFU) | IFN-γ ELISpot response [7] [SFU] | Significant response as percentage of maximal peptide SFU [8] | Significant response as percentage of maximal peptide SFU (patient II, max peptide 15 SFU) | Significant response as percentage of maximal peptide SFU (patient J, max peptide 196 SFU) | Significant response as percentage of maximal peptide SFU (patient M, max peptide 48 SFU) | IFN-γ ELISpot response [9] [SFU] | IFN-γ ELISpot response [10] [SFU] | Significant response as percentage of maximal peptide SFU (patient P, max peptide 64 SFU) | IFN-γ ELISpot response [11] [SFU] | Significant response as percentage of maximal peptide SFU (patient Q, max peptide 97 SFU) | IFN-γ ELISpot response [12] [SFU] | other results |
| --- | --- | --- | --- | --- | --- | --- | --- | --- | --- | --- | --- | --- | --- | --- | --- | --- | --- | --- | --- | --- | --- |
| LQPFPQPELPYSQP | 3 | 104 | ′′′ (41-70% = ′′′) | 81 | ′′′ (41-70% = ′′′) | 5 | 36 | 15 | + (>70% = +) | 53 | ′′′ (41-70% = ′′′) | + (>70% = +) | ′′ (21-40% = ′′) | + (>70% = +) | 3 | 37 | ′′′ (41-70% = ′′′) | 29 | ′′ (21-40% = ′′) | 25 | Significant response as percentage of maximal peptide SFU (patient U, max peptide 81 SFU): ′′ (21-40% = ′′); IFN-γ ELISpot response [13]: 19 SFU; Significant response as percentage of maximal peptide SFU (patient V, max peptide 35 SFU): ′′′ (41-70% = ′′′); IFN-γ ELISpot response [14]: 12 SFU; Significant response as percentage of maximal peptide SFU (patient Y, max peptide 16 SFU): + (>70% = +); IFN-γ ELISpot response [15]: 39 SFU; Significant response as percentage of maximal peptide SFU [16]: ′′′ (41-70% = ′′′); Significant response as percentage of maximal peptide SFU [17]: ′′′ (41-70% = ′′′); IFN-γ ELISpot response [18]: 22 SFU; Significant response as percentage of maximal peptide SFU [19]: ′′′ (41-70% = ′′′); IFN-γ ELISpot response [20]: 6 SFU; IFN-γ ELISpot response [21]: 11 SFU; Significant response as percentage of maximal peptide SFU (patient ten, max peptide 14.5 SFU): + (>70% = +); IFN-γ ELISpot response [22]: 71 SFU; IFN-γ ELISpot response [23]: 6 SFU; IFN-γ ELISpot response [24]: 13 SFU; Significant response as percentage of maximal peptide SFU [25]: ′ (11-20% = ′) |
| LQPFPQPQLPYPQP | 1 | 86 | ′′ (21-40% = ′′) | 64 | ′′ (21-40% = ′′) | 3 | 22 | 14 | + (>70% = +) | 51 | ′′′ (41-70% = ′′′) | + (>70% = +) | ′′′ (41-70% = ′′′) | ′′′ (41-70% = ′′′) | 4 | 25 | ′′ (21-40% = ′′) | 38 | ′′ (21-40% = ′′) | 35 | Significant response as percentage of maximal peptide SFU [26]: ′′ (21-40% = ′′); Significant response as percentage of maximal peptide SFU (patient K, max peptide 53 SFU): ′ (11-20% = ′); IFN-γ ELISpot response [13]: 10 SFU; Significant response as percentage of maximal peptide SFU (patient V, max peptide 35 SFU): ′′ (21-40% = ′′); IFN-γ ELISpot response [14]: 14 SFU; Significant response as percentage of maximal peptide SFU (patient Y, max peptide 16 SFU): + (>70% = +); IFN-γ ELISpot response [15]: 29 SFU; Significant response as percentage of maximal peptide SFU [16]: ′′′ (41-70% = ′′′); Significant response as percentage of maximal peptide SFU [17]: ′′′ (41-70% = ′′′); IFN-γ ELISpot response [18]: 17 SFU; Significant response as percentage of maximal peptide SFU [19]: ′′ (21-40% = ′′); IFN-γ ELISpot response [20]: 5 SFU; IFN-γ ELISpot response [21]: 5 SFU; IFN-γ ELISpot response [22]: 93 SFU; IFN-γ ELISpot response [23]: 10 SFU; IFN-γ ELISpot response [24]: 21 SFU; Significant response as percentage of maximal peptide SFU [25]: ′′ (21-40% = ′′) |
| LQPRPQPELPYPQP | 6 | 142 | ′′′ (41-70% = ′′′) | 178 | + (>70% = +) | 4 | 45 | 10 | ′′′ (41-70% = ′′′) | 89 | + (>70% = +) | ′′′ (41-70% = ′′′) | + (>70% = +) | + (>70% = +) | 7 | 64 | + (>70% = +) | 97 | + (>70% = +) | 81 | Significant response as percentage of maximal peptide SFU [26]: ′′′ (41-70% = ′′′); Significant response as percentage of maximal peptide SFU (patient K, max peptide 53 SFU): ′′′ (41-70% = ′′′); Significant response as percentage of maximal peptide SFU (patient L, max peptide 11 SFU): + (>70% = +); Significant response as percentage of maximal peptide SFU (patient U, max peptide 81 SFU): + (>70% = +); IFN-γ ELISpot response [13]: 30 SFU; Significant response as percentage of maximal peptide SFU (patient V, max peptide 35 SFU): + (>70% = +); IFN-γ ELISpot response [14]: 11 SFU; Significant response as percentage of maximal peptide SFU (patient Y, max peptide 16 SFU): ′′′ (41-70% = ′′′); IFN-γ ELISpot response [15]: 38 SFU; Significant response as percentage of maximal peptide SFU [16]: ′′′ (41-70% = ′′′); Significant response as percentage of maximal peptide SFU [17]: + (>70% = +); IFN-γ ELISpot response [18]: 24 SFU; Significant response as percentage of maximal peptide SFU [19]: ′′′ (41-70% = ′′′); IFN-γ ELISpot response [20]: 6 SFU; IFN-γ ELISpot response [21]: 6 SFU; IFN-γ ELISpot response [22]: 146 SFU; IFN-γ ELISpot response [23]: 18 SFU; IFN-γ ELISpot response [24]: 36 SFU; Significant response as percentage of maximal peptide SFU [25]: ′′′ (41-70% = ′′′) |
